Source: article PMC4138410 (Bioorganic & medicinal chemistry, 2014)
Like-named read-outs stand apart in the source and are kept apart here.

What was measured:
BoNT/A LC [1] = target: T1, BoNT/A LC (Clostridium botulinum, UniProt P0DPI0); test: biochemical; format: biochemical
BoNT/A LC [2] = target: T1, BoNT/A LC; format: biochemical
BoNT/A LC [3] = target: T1, BoNT/A LC; test: biochemical; format: biochemical; remark: listed apart in the source
[4] = pH 7.4; for %GSH remaining at 30 min: 0.5 h
BoNT/A LC [5] = target: T1, BoNT/A LC; format: biochemical; remark: listed apart in the source
BoNT/A = conditions: cited from earlier work

T1 sequence (P0DPI0 2-425 limits assumed): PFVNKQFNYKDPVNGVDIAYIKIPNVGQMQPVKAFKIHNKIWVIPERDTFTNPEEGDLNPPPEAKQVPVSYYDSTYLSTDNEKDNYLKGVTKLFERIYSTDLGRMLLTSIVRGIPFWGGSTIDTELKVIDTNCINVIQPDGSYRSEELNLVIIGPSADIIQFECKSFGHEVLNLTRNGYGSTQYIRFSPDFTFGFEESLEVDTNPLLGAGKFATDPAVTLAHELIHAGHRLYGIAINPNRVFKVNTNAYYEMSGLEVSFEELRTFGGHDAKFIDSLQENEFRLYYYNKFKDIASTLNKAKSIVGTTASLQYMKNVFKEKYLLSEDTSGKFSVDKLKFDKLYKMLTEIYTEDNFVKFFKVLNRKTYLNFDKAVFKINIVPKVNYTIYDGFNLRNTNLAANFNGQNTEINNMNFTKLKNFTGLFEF

C=CC(=O)Nc1cccnc1 [Compound 41]
irreversible/time-dependent inactivation in 66-mer assay (in words) (BoNT/A LC [1]): no irreversible inhibition | inhibition of BoNT/A in 66-mer assay (in words) (BoNT/A LC [2]): weakly inhibited

O=C(NCc1ccc(Oc2ccccc2)cc1)c1ccccn1 [Compound 35, N-(4-phenoxybenzyl)picolinamide]
inhibition of BoNT/A in 66-mer assay (in words) (BoNT/A LC [2]): high IC50 values

CCN1C(=O)C=CC1=O [N-ethylmaleimide, reference compound]
inactivation of BoNT/A in SNAPtide screen (in words) (BoNT/A LC [3]): weakly inactivated | inhibitory rank in SNAPtide assay (in words) (BoNT/A LC [3]): one of the weakest inhibitors tested

O=C1C=CC(=O)c2cc(O)ccc21 [Compound 19, 6-OH-NQ]
%GSH remaining at 30 min [4]: 32 (22) % | %GSH remaining at 1 hour [4]: 32 (22) %

O=C1C=C(Cl)C(=O)C=C1Cl [Compound 1, 2,5-diCl-BQ]
%GSH remaining at 10 s ([4]; 10 s): 0% | %GSH remaining at 30 min [4]: 0% | effect on catalytic activity (in words) (BoNT/A LC [3]): completely abrogated catalytic activity

CC1=CC(=O)C=C(C)C1=O [Compound 25, 2,6-diMe-BQ]
%GSH remaining at 30 min [4]: 0%

COc1ccc(OC)c(CNCC(=O)Nc2cccc(OCc3ccccc3)c2)c1 [Compound 33, N-[3-(Benzyloxy)phenyl]-2-[(2,5-dimethoxybenzyl)amino]acetamide]
inhibition of BoNT/A in 66-mer assay (in words) (BoNT/A LC [2]): well tolerated

O=C1C=CC(=O)c2c(O)ccc(O)c21 [Compound 13, 5,8-diOH-NQ]
%GSH remaining at 30 min [4]: 39 (26) % | %GSH remaining at 1 hour [4]: 39 (26) %

O=C1C=CC(=O)C(Nc2cccc(C(=O)NCc3ccc(Oc4ccccc4)cc3)n2)=C1 [Compound 31, 6-[(3,6-Dioxocyclohexa-1,4-dien-1-yl)amino]-N-(4-phenoxybenzyl)picolinamide]
fold increase in activity by adding the phenoxyphenyl fragment (BoNT/A LC [2]): 7 fold | fold increase in potency by addition of BQ vs analogous amino acetamide (BoNT/A LC [2]): 21 fold

chicoric acid [CA]
effect on BQ-mediated inactivation of BoNT/A (in words) (BoNT/A LC [5]): not affected

COc1ccc(OC)c(Cn2cnc(C(=O)NCc3ccc(-c4ccccc4)cc3)n2)c1 [Compound 38, N-([1,1′-Biphenyl]-4-ylmethyl)-1-(2,5-dimethoxybenzyl)-1H-1,2,4-triazole-3-carboxamide]
inhibition of BoNT/A in 66-mer assay (in words) (BoNT/A LC [2]): decrease in activity

CS(=O)(=O)SCCCN [MTSPA, (3-aminopropyl)methanethiosulfonate]
Ki (BoNT/A): 7.7 µM

COC1=CC(=O)C(OC)=C(c2ccc(C)cc2)C1=O [Compound 21, 2,5-diOMe-3-Tol-BQ]
%GSH remaining at 30 min [4]: 49 (35) % | %GSH remaining at 1 hour [4]: 49 (35) %

COC1=CC(=O)C=C(OC)C1=O [Compound 24, 2,6-diOMe-BQ]
%GSH remaining at 30 min [4]: 0%

O=C1C=CC(=O)C(CNCC(=O)Nc2cccc(OCc3ccccc3)c2)=C1 [Compound 30, N-[3-(Benzyloxy)phenyl]-2-{[(3,6-dioxocyclohexa-1,4-dien-1-yl)methyl]amino}acetamide]
fold increase in potency by addition of BQ vs analogous amino acetamide (BoNT/A LC [2]): 26 fold

O=C1C=CC(=O)C=C1 [Compound 3, BQ]
irreversible/time-dependent inactivation in 66-mer assay (in words) (BoNT/A LC [1]): comparable to the SNAPtide assay

NCC(=O)Nc1ccc(Oc2ccccc2)cc1 [Compound 28, 2-Amino-N-(4-phenoxyphenyl)acetamide]
effect on BQ-mediated inactivation of BoNT/A (in words) (BoNT/A LC [5]): competed

COc1ccc(OC)c(Nc2cccc(C(=O)NCc3ccc(Oc4ccccc4)cc3)n2)c1 [Compound 34, 6-[(2,5-Dimethoxyphenyl)amino]-N-(4-phenoxybenzyl)picolinamide]
inhibition of BoNT/A in 66-mer assay (in words) (BoNT/A LC [2]): decrease in activity

O=C(NCc1ccc(-c2ccccc2)cc1)c1nc[nH]n1 [Compound 39, N-([1,1′-Biphenyl]-4-ylmethyl)-1H-1,2,4-triazole-3-carboxamide]
inhibition of BoNT/A in 66-mer assay (in words) (BoNT/A LC [2]): high IC50 values

COc1cccc2c1C(=O)C=CC2=O [Compound 18, 5-OMe-NQ]
%GSH remaining at 30 min [4]: 27 (14) % | %GSH remaining at 1 hour [4]: 27 (14) %

CC1=CC(=O)C=CC1=O [Compound 12, 2-Me-BQ]
kinact/KI (BoNT/A LC [3]): 3.5 M⁻¹ s⁻¹

O=C1C=CC(=O)C(CC(=O)O)=C1 [Compound 22, 2-(3,6-Dioxocyclohexa-1,4-dien-1-yl)acetic acid]
kinact/KI (BoNT/A LC [1]): 2.5 M⁻¹ s⁻¹ | inhibition of BoNT/A in 66-mer assay (in words) (BoNT/A LC [2]): fairly active

O=C1C=CC(=O)C(Cn2cnc(C(=O)NCc3ccc(-c4ccccc4)cc3)n2)=C1 [Compound 32, N-([1,1′-Biphenyl]-4-ylmethyl)-1-[(3,6-dioxocyclohexa-1,4-dien-1-yl)methyl]-1H-1,2,4-triazole-3-carboxamide]
fold increase in potency by addition of BQ vs analogous amino acetamide (BoNT/A LC [2]): 64 fold
